Data reported in patent US11472798B2 (Mission Therapeutics Limited, priority 2014, dated 2022).

The molecules below were run against T1, UCHL1 (Homo sapiens, UniProt P09936) (assay: UCHL1 biochemical IC50 assay (fluorescence polarisation)). Conditions: 30 min enzyme/compound pre-incubation at room temp, read after 2 hr incubation, read-out: Activity range (UCHL1 biochemical IC50 assay).
T1 construct: made in house; host or cells: HEK293T
T1 sequence (P09936 1-223): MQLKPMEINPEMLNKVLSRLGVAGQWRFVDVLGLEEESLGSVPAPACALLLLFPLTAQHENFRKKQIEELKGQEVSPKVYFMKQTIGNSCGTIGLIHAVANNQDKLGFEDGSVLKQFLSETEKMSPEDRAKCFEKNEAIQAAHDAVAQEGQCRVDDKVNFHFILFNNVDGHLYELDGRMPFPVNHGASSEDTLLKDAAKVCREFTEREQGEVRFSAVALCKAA
How it was run: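 FLAG-UCHL1 purified from transfected HEK293T cells was preincubated 30 min at room temperature with compound (8 points, 100–0.03 μM final) in Tris pH 7.5 buffer with Tween 20, BSA and beta-mercaptoethanol. Reaction started with 50 nM TAMRA-peptide–ubiquitin isopeptide substrate; fluorescence polarisation (ex 540/em 590 nm) read at once and after 2 h.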

Row | IC50 | Structure (SMILES)
1 | < 1 µM | CNC(=O)c1cc(-c2cnc(NC(=O)[C@H]3CCN(C#N)C3)s2)ccc1F [Example 231, (S)-1-cyano-N-(5-(4-fluoro-3-(methylcarbamoyl)phenyl)thiazol-2-yl) pyrrolidine-3-carboxamide]
2 | < 1 µM | N#CN1CC[C@H](C(=O)Nc2ncc(-c3cccc(C(N)=O)c3)s2)C1 [Example 232, (S)-N-(5-(3-carbamoylphenyl)thiazol-2-yl)-1-cyanopyrrolidine-3-carboxamide]
3 | < 1 µM | CNC(=O)c1cccc(-c2cnc(NC(=O)[C@H]3CCN(C#N)C3)s2)c1 [Example 233, (S)-1-cyano-N-(5-(3-(methylcarbamoyl)phenyl)thiazol-2-yl)pyrrolidine-3-carboxamide]
4 | < 1 µM | CCNC(=O)c1cccc(-c2cnc(NC(=O)[C@H]3CCN(C#N)C3)s2)c1 [Example 234, (S)-1-cyano-N-(5-(3-(ethylcarbamoyl)phenyl)thiazol-2-yl)pyrrolidine-3-carboxamide]
5 | < 1 µM | CN(C)C(=O)c1cccc(-c2cnc(NC(=O)[C@H]3CCN(C#N)C3)s2)c1 [Example 235, (S)-1-cyano-N-(5-(3-(dimethylcarbamoyl)phenyl)thiazol-2-yl)pyrrolidine-3-carboxamide]
6 | < 1 µM | N#CN1CC[C@H](C(=O)Nc2ncc(-c3ccc(F)c(C(N)=O)c3)s2)C1 [Example 236, (S)-N-(5-(3-carbamoyl-4-fluorophenyl)thiazol-2-yl)-1-cyanopyrrolidine-3-carboxamide]
7 | < 1 µM | N#CN1CC[C@H](C(=O)Nc2ncc(-c3ccc(Cl)c(C(N)=O)c3)s2)C1 [Example 237, (S)-N-(5-(3-carbamoyl-4-chlorophenyl)thiazol-2-yl)-1-cyanopyrrolidine-3-carboxamide]
8 | < 1 µM | CNC(=O)c1cc(-c2cnc(NC(=O)[C@H]3CCN(C#N)C3)s2)ccc1Cl [Example 238, (S)-N-(5-(4-chloro-3-(methylcarbamoyl)phenyl)thiazol-2-yl)-1-cyanopyrrolidine-3-carboxamide]
9 | < 1 µM | C#CCNC(=O)c1cc(-c2cnc(NC(=O)[C@H]3CCN(C#N)C3)s2)ccc1Cl [Example 239, (S)-N-(5-(4-chloro-3-(prop-2-yn-1-ylcarbarmoyl)phenyl)thiazol-2-yl)-1-cyanopyrrolidine-3-carboxamide]
10 | 1 to 10 µM | N#CN1CC[C@H](C(=O)Nc2cc(-c3cccc(Cl)c3)ncn2)C1 [Example 257, (S)-N-(6-(3-chlorophenyl)pyrimidin-4-yl)-1-cyanopyrrolidine-3-carboxamide]
11 | 1 to 10 µM | N#CN1CC[C@H](C(=O)Nc2cc(-c3ccnc(N)c3)ccn2)C1 [Example 258, (S)-N-(2′-amino-[4,4′-bipyridin]-2-yl)-1-cyanopyrrolidine-3-carboxamide]
12 | 1 to 10 µM | CNc1cc(-c2ccnc(NC(=O)[C@H]3CCN(C#N)C3)c2)ccn1 [Example 259, (S)-1-cyano-N-(2′-(methylamino)-[4,4′-bipyridin]-2-yl)pyrrolidine-3-carboxamide]
13 | 1 to 10 µM | CNC(=O)c1ccc2cnc(NC(=O)[C@H]3CCN(C#N)C3)cc2c1 [Example 260, (S)-3-(1-cyanopyrrolidine-3-carboxamido)-N-methylisoquinoline-6-carboxamide]
14 | 1 to 10 µM | C#Cc1ccc2cnc(NC(=O)[C@H]3CCN(C#N)C3)cc2c1 [Example 263, (S)-1-cyano-N-(6-ethynylisoquinolin-3-yl)pyrrolidine-3-carboxamide]
15 | 1 to 10 µM | N#CN1CC[C@H](C(=O)Nc2cc3cc(C(N)=O)ccc3cn2)C1 [Example 265, (S)-3-(1-cyanopyrrolidine-3-carboxamido)isoquinoline-6-carboxamide]

Continued, molecule first:

Row | Structure (SMILES) | IC50
16 | CC(C)S(=O)(=O)N1CCn2nc(NC(=O)[C@H]3CCN(C#N)C3)cc2C1 [Example 240, (S)-1-cyano-N-(5-(isopropylsulfonyl)-4,5,6,7-tetrahydropyrazolo[1,5-a]pyrazin-2 yl)pyrrolidine-3-carboxamide] | < 1 µM
17 | N#CN1CC[C@H](C(=O)Nc2cc3n(n2)CCN(c2ccccc2)C3)C1 [Example 241, (S)-1-cyano-N-(5-phenyl-4,5,6,7-tetrahydropyrazolo[1,5-a]pyrazin-2-yl)pyrrolidine-3-carboxamide] | < 1 µM
18 | N#CN1CC[C@H](C(=O)Nc2cc3n(n2)CCN(Cc2ccccc2)C3)C1 [Example 242, (S)—N-(5-benzyl-4,5,6,7-tetrahydropyrazolo[1,5-a]pyrazin-2-yl)-1-cyanopyrrolidine-3-carboxamide] | < 1 µM
19 | COCCOc1cc(-n2cnc(NC(=O)[C@H]3CCN(C#N)C3)c2)ccc1C#N [Example 243, (S)-1-cyano-N-(1-(4-cyano-3-(2-methoxyethoxy)phenyl)-1H-imidazol-4-yl)pyrrolidine-3-carboxamide] | < 1 µM
20 | COCCOc1ccc(C#N)c(-n2cnc(NC(=O)[C@H]3CCN(C#N)C3)c2)c1 [Example 244, (S)-1-cyano-N-(1-(2-cyano-5-(2-methoxyethoxy)phenyl)-1H-imidazol-4-yl)pyrrolidine-3-carboxamide] | < 1 µM
21 | N#Cc1ccc(-n2cnc(NC(=O)[C@H]3CCN(C#N)C3)c2)cc1OCCCN1CCOCC1 [Example 245, (S)-1-cyano-N-(1-(4-cyano-3-(3-morpholinopropoxy)phenyl)-1H-imidazol-4-yl)pyrrolidine-3-carboxamide] | < 1 µM
22 | N#Cc1ccc(OCCCN2CCOCC2)cc1-n1cnc(NC(=O)[C@H]2CCN(C#N)C2)c1 [Example 246, (S)-1-cyano-N-(1-(2-cyano-5-(3-morpholinopropoxy)phenyl)-1H-imidazol-4-yl)pyrrolidine-3-carboxamide] | < 1 µM
23 | N#Cc1ccc(-n2cnc(NC(=O)[C@H]3CCN(C#N)C3)c2)cc1O[C@H]1CCOC1 [Example 247, (S)-1-cyano-N-(1-(4-cyano-3-(((S)-tetrahydrofuran-3-yl)oxy)phenyl)-1H-imidazol-4-yl)pyrrolidine-3-carboxamide] | < 1 µM
24 | N#Cc1ccc(O[C@H]2CCOC2)cc1-n1cnc(NC(=O)[C@H]2CCN(C#N)C2)c1 [Example 248, (S)-1-cyano-N-(1-(2-cyano-5-(((S)-tetrahydrofuran-3-yl)oxy)phenyl)-1H-imidazol-4-yl)pyrrolidine-3-carboxamide] | 1 to 10 µM
25 | N#Cc1ccc(-n2cnc(NC(=O)[C@H]3CCN(C#N)C3)c2)cc1OC1COC1 [Example 249, (S)-1-cyano-N-(1-(4-cyano-3-(oxetan-3-yloxy)phenyl)-1H-imidazol-4-yl)pyrrolidine-3-carboxamide] | < 1 µM
26 | N#Cc1ccc(OC2COC2)cc1-n1cnc(NC(=O)[C@H]2CCN(C#N)C2)c1 [Example 250, (S)-1-cyano-N-(1-(2-cyano-5-(oxetan-3-yloxy)phenyl)-1H-imidazol-4-yl)pyrrolidine-3-carboxamide] | < 1 µM
27 | N#CN1CC[C@H](C(=O)Nc2cc(-c3ccnc4ccnn34)ccn2)C1 [Example 251, (S)-1-cyano-N-(4-(pyrazolo[1,5-a]pyrimidin-7-yl)pyridin-2-yl)pyrrolidine-3-carboxamide] | < 1 µM
28 | N#CN1CC[C@H](C(=O)Nc2cc(-c3ccnc4nccn34)ccn2)C1 [Example 252, (S)-1-cyano-N-(4-(imidazo[1,2-a]pyrimidin-5-yl)pyridin-2-yl)pyrrolidine-3-carboxamide] | 1 to 10 µM
29 | N#CN1CC[C@H](C(=O)Nc2cc(-c3cccc4nccn34)ccn2)C1 [Example 253, (S)-1-cyano-N-(4-(imidazo[1,2-a]pyridin-5-yl)pyridin-2-yl)pyrrolidine-3-carboxamide] | < 1 µM
30 | N#CN1CC[C@H](C(=O)Nc2cc(-c3cn4ccnc4cn3)ccn2)C1 [Example 254, (S)-1-cyano-N-(4-(imidazo[1,2-a]pyrazin-6-yl)pyridin-2-yl)pyrrolidine-3-carboxamide] | < 1 µM
31 | N#CN1CC[C@H](C(=O)Nc2cc(-c3cnc4nccn4c3)ccn2)C1 [Example 255, (S)-1-cyano-N-(4-(imidazo[1,2-a]pyrimidin-6-yl)pyridin-2-yl)pyrrolidine-3-carboxamide] | < 1 µM
32 | N#CN1CC[C@H](C(=O)Nc2cc3cccnc3cn2)C1 [Example 256, (S)-1-cyano-N-(1,7-naphthyridin-6-yl)pyrrolidine-3-carboxamide] | 1 to 10 µM
33 | Cc1noc(C)c1-c1ccc2cnc(NC(=O)[C@H]3CCN(C#N)C3)cc2c1 [Example 261, (S)-1-cyano-N-(6-(3,5-dimethylisoxazol-4-yl)isoquinolin-3-yl)pyrrolidine-3-carboxamide] | < 1 µM
34 | N#CN1CC[C@H](C(=O)Nc2cc(-c3cccc4[nH]ncc34)ccn2)C1 [Example 262, (S)—N-(4-(1H-indazol-4-yl)pyridin-2-yl)-1-cyanopyrrolidine-3-carboxamide] | < 1 µM
35 | C#Cc1ccc2cnc(NC(=O)[C@H]3CCN(C#N)[C@H]3C)cc2c1 [Example 264, (2S,3S)-1-cyano-N-(6-ethynylisoquinolin-3-yl)-2-methylpyrrolidine-3-carboxamide] | 1 to 10 µM
36 | C[C@H]1[C@@H](C(=O)Nc2cc3cc(-c4cn[nH]c4)ccc3cn2)CCN1C#N [Example 266, (2S,3S)—N-(6-(1H-pyrazol-4-yl)isoquinolin-3-yl)-1-cyano-2-methylpyrrolidine-3-carboxamide] | < 1 µM
37 | N#CN1CC[C@H](C(=O)Nc2cc3ccccn3n2)C1 [Example 267, (S)-1-cyano-N-(pyrazolo[1,5-a]pyridin-2-yl)pyrrolidine-3-carboxamide] | 1 to 10 µM
38 | N#CN1CC[C@H](C(=O)Nc2cc(-c3ccccc3)ccn2)C1 [Example 268, (S)-1-cyano-N-(4-phenylpyridin-2-yl)pyrrolidine-3-carboxamide] | 1 to 10 µM
